In patent publication US9522886B2, “Pyridine derivatives” (Hoffmann-La Roche Inc., priority 2012, dated 2016):
Read-outs that look alike come from different tables or passages of the source.

Columns and labels:
human CB2 receptors = human CB2 receptors (Homo sapiens (Human), UniProt P34972); experiment: cAMP assay, CHO cells expressing human CB2 receptors; format: cell-based
Method: (§1) CHO cells expressing human CB1 or CB2 receptors are seeded 17-24 hours prior to the experiment 50.000 cells per well in a black 96 well plate with flat clear bottom (Corning Costar #3904) in DMEM (Invitrogen No. 31331), 1×HT supplement, with 10% fetal calf serum and incubated at 5% CO2 and 37° C. in a humidified incubator. The growth medium was exchanged with Krebs Ringer Bicarbonate buffer with 1 mM IBMX and incubated at 30° C. for 30 min. Compounds were added to a final assay volume of 100 μl and incubated for 30 min at 30° C. Using the cAMP-Nano-TRF detection kit the assay (Roche Diagnostics) was stopped by the addition of 50 μl lysis reagent (Tris, NaCl, 1.5% Triton X100, 2.5% NP40, 10% NaN3) and 50 μl detection solutions (20 μM mAb Alexa700-cAMP 1:1, and 48 μM Ruthenium-2-AHA-cAMP) and shaken for 2 h at room temperature. The time-resolved energy transfer is measured by a TRF reader (Evotec Technologies GmbH), equipped with a ND:YAG laser as excitation source. The plate is measured twice with the excitation at 355 nm and at the emission with a delay of 100 ns and a gate of 100 ns, total exposure time 10 s at 730 (bandwidth 30 nm) or 645 nm (bandwidth 75 nm), respectively.
(§2) EC50 values were determined using Activity Base analysis (ID Business Solution, Limited).

human CB1 receptors = human CB1 receptors (Homo sapiens (Human), UniProt P21554); experiment: cAMP assay, CHO cells expressing human CB1 receptors; format: cell-based
Sequence of human CB1 receptors (P21554 whole entry): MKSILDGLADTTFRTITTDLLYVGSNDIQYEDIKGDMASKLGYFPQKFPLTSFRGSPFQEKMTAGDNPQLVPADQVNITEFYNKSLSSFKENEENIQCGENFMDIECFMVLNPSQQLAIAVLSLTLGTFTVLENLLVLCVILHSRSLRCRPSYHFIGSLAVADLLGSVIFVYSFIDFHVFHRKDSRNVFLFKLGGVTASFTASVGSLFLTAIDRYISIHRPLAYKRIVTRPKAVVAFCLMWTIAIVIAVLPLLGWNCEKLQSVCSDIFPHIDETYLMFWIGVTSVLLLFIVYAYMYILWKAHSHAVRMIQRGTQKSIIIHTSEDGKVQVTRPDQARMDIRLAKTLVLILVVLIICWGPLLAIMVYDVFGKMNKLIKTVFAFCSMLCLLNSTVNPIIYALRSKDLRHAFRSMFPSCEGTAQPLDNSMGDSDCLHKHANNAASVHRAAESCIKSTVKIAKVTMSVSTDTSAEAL
Method: as §1, §2

[1] = functional cAMP assay, CHO cells expressing human CB2, read-out: human CB2 EC50
[2] = functional cAMP assay, CHO cells expressing human CB1, read-out: human CB1 EC50

Sequence of human CB2 receptors (P34972 whole entry): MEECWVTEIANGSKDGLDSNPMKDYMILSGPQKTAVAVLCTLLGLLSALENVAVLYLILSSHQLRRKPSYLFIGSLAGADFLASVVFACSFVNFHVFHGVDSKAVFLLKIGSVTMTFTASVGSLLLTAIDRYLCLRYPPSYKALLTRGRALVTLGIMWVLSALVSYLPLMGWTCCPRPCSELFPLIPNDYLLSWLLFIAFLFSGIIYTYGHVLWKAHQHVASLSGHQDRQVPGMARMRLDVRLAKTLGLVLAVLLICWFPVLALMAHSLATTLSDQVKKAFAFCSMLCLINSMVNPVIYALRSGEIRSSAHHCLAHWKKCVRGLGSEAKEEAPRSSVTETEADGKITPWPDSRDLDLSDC

Molecule NC(=O)CC1(NC(=O)c2ccc(C3CC3)c(OCC3CC3)n2)CCNCC1 [Example 86, N-[4-(2-Amino-2-oxoethyl)piperidin-4-yl]-5-cyclopropyl-6-(cyclopropylmethoxy)pyridine-2-carboxamide] has an EC50 (human CB2 receptors; [1]) of 240 nM and an EC50 (human CB1 receptors; [2]) of over 10000 nM.
NC(=O)CC(NC(=O)c1ccc(C2CC2)c(OCC2CC2)n1)C(F)(F)F (single isomer, unassigned; (+)) [Example 32, (+)-5-Cyclopropyl-6-cyclopropylmethoxy-pyridine-2-carboxylic acid (1-carbamoylmethyl-2,2,2-trifluoro-ethyl)-amide] showed an EC50 (human CB2 receptors; [1]) of 137 nM and an EC50 (human CB1 receptors; [2]) of over 10000 nM.
NC(=O)CC1(NC(=O)c2ccc(C3(O)CCC3)c(OCC3CC3)n2)CS(=O)(=O)C1 [Example 92, N-[3-(2-Amino-2-oxoethyl)-1,1-dioxothietan-3-yl]-6-(cyclopropylmethoxy)-5-(1-hydroxycyclobutyl)pyridine-2-carboxamide] was tested, and the EC50 (human CB2 receptors; [1]) was 2.2 nM and the EC50 (human CB1 receptors; [2]) was over 10000 nM.
NC(=O)CC1(NC(=O)c2ccc(N3CC(F)(F)C3)c(OCC3CC3)n2)CCNC1 (centres unmarked) [Example 84, N-[3-(2-Amino-2-oxoethyl)pyrrolidin-3-yl]-6-(cyclopropylmethoxy)-5-(3,3-difluoroazetidin-1-yl)pyridine-2-carboxamide] gave an EC50 (human CB2 receptors; [1]) of 67.6 nM and an EC50 (human CB1 receptors; [2]) of over 10000 nM.
NC(=O)CC(NC(=O)c1ccc(C2CC2)c(OCC2CC2)n1)C1CC1 (single isomer, unassigned; (-)) [Example 27, (−)-5-Cyclopropyl-6-cyclopropylmethoxy-pyridine-2-carboxylic acid (2-carbamoyl-1-cyclopropyl-ethyl)-amide] was tested, and the EC50 (human CB2 receptors; [1]) was 1.4 nM and the EC50 (human CB1 receptors; [2]) was over 10000 nM.
NC(=O)CC1(NC(=O)c2ccc(N3CC(F)(F)C3)c(OCC3CC3)n2)COC1 [Example 26, 6-Cyclopropylmethoxy-5-(3,3-difluoro-azetidin-1-yl)-pyridine-2-carboxylic acid (3-carbamoylmethyl-oxetan-3-yl)-amide] gave an EC50 (human CB2 receptors; [1]) of 5.65 nM and an EC50 (human CB1 receptors; [2]) of over 10000 nM.
In the case of NC(=O)CC1(NC(=O)c2ccc(N3CC(F)(F)C3)c(OCC3CC3)n2)CCSCC1 [Example 62, 6-Cyclopropylmethoxy-5-(3,3-difluoro-azetidin-1-yl)-pyridine-2-carboxylic acid (4-carbamoylmethyl-tetrahydro-thiopyran-4-yl)-amide], the EC50 (human CB2 receptors; [1]) is reported as 2.5 nM and the EC50 (human CB1 receptors; [2]) is reported as over 10000 nM.
For NC(=O)CC1(NC(=O)c2ccc(C3CC3)c(Cc3ccc(F)cc3)n2)CNC1 [Example 81, N-[3-(2-Amino-2-oxoethyl)azetidin-3-yl]-5-cyclopropyl-6-[(4-fluorophenyl)methyl]pyridine-2-carboxamide], the EC50 (human CB2 receptors) was 15 nM and the EC50 (human CB1 receptors) was over 10000 nM.
Work on O=C(O)CC1(NC(=O)c2ccc(N3CC(F)(F)C3)c(OCC3CC3)n2)CS(=O)(=O)C1 [Example 56, (3-{[6-Cyclopropylmethoxy-5-(3,3-difluoro-azetidin-1-yl)-pyridine-2-carbonyl]-amino}-1,1-dioxo-1λ6-thietan-3-yl)-acetic acid] yielded an EC50 (human CB2 receptors; [1]) of 3 nM and an EC50 (human CB1 receptors; [2]) of over 10000 nM.
CC(C)CC(CNC(=O)c1ccc(N2CC(F)(F)C2)c(OCC2CC2)n1)C(=O)O (centres unmarked) [Example 11, 2-[({[6-(Cyclopropylmethoxy)-5-(3,3-difluoroazetidin-1-yl)pyridin-2-yl]carbonyl}amino)methyl]-4-methylpentanoic acid] was tested, and the EC50 (human CB2 receptors; [1]) was 967 nM and the EC50 (human CB1 receptors; [2]) was over 10000 nM.
With NC(=O)CC(NC(=O)c1ccc(C2CC2)c(OCC2CC2)n1)C1CC1 (single isomer, unassigned; (+)) [Example 28, (+)-5-Cyclopropyl-6-cyclopropylmethoxy-pyridine-2-carboxylic acid (2-carbamoyl-1-cyclopropyl-ethyl)-amide] the EC50 (human CB2 receptors; [1]) was 3 nM and the EC50 (human CB1 receptors; [2]) was over 10000 nM.
In the case of CC(C)(C)[C@H](CC(N)=O)NC(=O)c1ccc(C2CC2)c(OCC2CC2)n1 [Example 35, 5-Cyclopropyl-6-cyclopropylmethoxy-pyridine-2-carboxylic acid ((S)-1-carbamoylmethyl-2,2-dimethyl-propyl)-amide], the EC50 (human CB2 receptors; [1]) is reported as 0.6 nM and the EC50 (human CB1 receptors; [2]) is reported as 209 nM.
For NC(=O)CC1(NC(=O)c2ccc(C(F)(F)F)c(OCC3CC3)n2)CSC1 [Example 97, N-[3-(2-Amino-2-oxoethyl)thietan-3-yl]-6-(cyclopropylmethoxy)-5-(trifluoromethyl)pyridine-2-carboxamide], the EC50 (human CB2 receptors; [1]) was 11.5 nM and the EC50 (human CB1 receptors; [2]) was over 10000 nM.
NC(=O)CC1(NC(=O)c2ccc(N3CC(F)(F)C3)c(OCC3CC3)n2)CNC1 [Example 65, N-[3-(2-Amino-2-oxoethyl)azetidin-3-yl]-6-(cyclopropylmethoxy)-5-(3,3-difluoroazetidin-1-yl)pyridine-2-carboxamide] was tested, and the EC50 (human CB2 receptors; [1]) was 443 nM and the EC50 (human CB1 receptors; [2]) was over 10000 nM.
Work on NC(=O)CC1(NC(=O)c2ccc(C3(F)CCC3)c(OCC3CC3)n2)COC1 [Example 89, N-[3-(2-Amino-2-oxoethyl)oxetan-3-yl]-6-(cyclopropylmethoxy)-5-(1-fluorocyclobutyl)pyridine-2-carboxamide] yielded an EC50 (human CB2 receptors; [1]) of 11.9 nM and an EC50 (human CB1 receptors; [2]) of over 10000 nM.
Molecule CNC(=O)CC1(NC(=O)c2ccc(C(F)(F)F)c(OCC3CC3)n2)COC1 [Example 39, 6-Cyclopropylmethoxy-5-trifluoromethyl-pyridine-2-carboxylic acid (3-methylcarbamoylmethyl-oxetan-3-yl)-amide] has an EC50 (human CB2 receptors; [1]) of 599 nM and an EC50 (human CB1 receptors; [2]) of over 10000 nM.
O=C(O)CC1(NC(=O)c2ccc(N3CC(F)(F)C3)c(OCC3CC3)n2)CCOCC1 [Example 57, (4-{[6-Cyclopropylmethoxy-5-(3,3-difluoro-azetidin-1-yl)-pyridine-2-carbonyl]-amino}-tetrahydro-pyran-4-yl)-acetic acid] was tested, and the EC50 (human CB2 receptors; [1]) was 3 nM and the EC50 (human CB1 receptors; [2]) was over 10000 nM.
Molecule CCOC(=O)CC(NC(=O)c1ccc(N2CC(F)(F)C2)c(OCC2CC2)n1)c1ccccc1 (centres unmarked) [Example 4, 3-{[6-Cyclopropylmethoxy-5-(3,3-difluoro-azetidin-1-yl)-pyridine-2-carbonyl]-amino}-3-phenyl-propionic acid ethyl ester] has an EC50 (human CB2 receptors; [1]) of 4.2 nM and an EC50 (human CB1 receptors; [2]) of over 10000 nM.
In the case of NC(=O)CC1(NC(=O)c2ccc(C3(O)COC3)c(OCC3CC3)n2)COC1 [Example 94, N-[3-(2-Amino-2-oxoethyl)oxetan-3-yl]-6-(cyclopropylmethoxy)-5-(3-hydroxyoxetan-3-yl)pyridine-2-carboxamide], the EC50 (human CB2 receptors; [1]) is reported as 251 nM and the EC50 (human CB1 receptors; [2]) is reported as over 10000 nM.
Molecule NC(=O)CC1(NC(=O)c2ccc(C3(O)CCC3)c(OCC3CC3)n2)CSC1 [Example 95, N-[3-(2-Amino-2-oxoethyl)thietan-3-yl]-6-(cyclopropylmethoxy)-5-(1-hydroxycyclobutyl)pyridine-2-carboxamide] has an EC50 (human CB2 receptors; [1]) of 1.1 nM and an EC50 (human CB1 receptors; [2]) of over 10000 nM.
For CC(C)C[C@@H](CC(N)=O)NC(=O)c1ccc(C2CC2)c(OCC2CC2)n1 [Example 24, (−)-5-Cyclopropyl-6-cyclopropylmethoxy-pyridine-2-carboxylic acid (1-carbamoylmethyl-3-methyl-butyl)-amide], the EC50 (human CB2 receptors; [1]) was 3 nM and the EC50 (human CB1 receptors; [2]) was over 10000 nM.
NC(=O)CC1(NC(=O)c2ccc(C3CC3)c(OCC3CC3)n2)CS(=O)(=O)C1 [Example 77, N-[3-(2-Amino-2-oxoethyl)-1,1-dioxothietan-3-yl]-5-cyclopropyl-6-(cyclopropylmethoxy)pyridine-2-carboxamide] was tested, and the EC50 (human CB2 receptors; [1]) was 0.7 nM and the EC50 (human CB1 receptors; [2]) was over 10000 nM.
For CCOC(=O)CC(C)(C)NC(=O)c1ccc(N2CC(F)(F)C2)c(OCC2CC2)n1 [Example 5, 3-{[6-Cyclopropylmethoxy-5-(3,3-difluoro-azetidin-1-yl)-pyridine-2-carbonyl]-amino}-3-methyl-butyric acid ethyl ester], the EC50 (human CB2 receptors; [1]) was 518 nM and the EC50 (human CB1 receptors; [2]) was over 10000 nM.
In the case of NC(=O)CC1(NC(=O)c2ccc(C3CC3)c(OCC(F)(F)C(F)(F)F)n2)COC1 [Example 49, 5-Cyclopropyl-6-(2,2,3,3,3-pentafluoro-propoxy)-pyridine-2-carboxylic acid (3-carbamoylmethyl-oxetan-3-yl)-amide], the EC50 (human CB2 receptors; [1]) is reported as 12.7 nM and the EC50 (human CB1 receptors; [2]) is reported as over 10000 nM.
With COC(=O)CC1(NC(=O)c2ccc(N3CC(F)(F)C3)c(OCC3CC3)n2)CNC(=O)C1 (centres unmarked) [Example 50, (3-{[6-Cyclopropylmethoxy-5-(3,3-difluoro-azetidin-1-yl)-pyridine-2-carbonyl]-amino}-5-oxo-pyrrolidin-3-yl)-acetic acid methyl ester] the EC50 (human CB2 receptors; [1]) was 423 nM and the EC50 (human CB1 receptors; [2]) was over 10000 nM.
Work on CCOC(=O)C1(CNC(=O)c2ccc(N3CC(F)(F)C3)c(OCC3CC3)n2)CC1 [Example 71, Ethyl 1-[[[6-(cyclopropylmethoxy)-5-(3,3-difluoroazetidin-1-yl)pyridine-2-carbonyl]amino]methyl]cyclopropane-1-carboxylate] yielded an EC50 (human CB2 receptors; [1]) of 60.6 nM and an EC50 (human CB1 receptors; [2]) of over 10000 nM.
With CN(C)C(=O)CC1(NC(=O)c2ccc(N3CC(F)(F)C3)c(OCC3CC3)n2)COC1 [Example 41, 6-Cyclopropylmethoxy-5-(3,3-difluoro-azetidin-1-yl)-pyridine-2-carboxylic acid (3-dimethylcarbamoylmethyl-oxetan-3-yl)-amide] the EC50 (human CB2 receptors; [1]) was 298 nM and the EC50 (human CB1 receptors; [2]) was over 10000 nM.
In the case of CC(=O)N1CCC(CC(N)=O)(NC(=O)c2ccc(C3CC3)c(Cc3ccc(F)cc3)n2)CC1 [Example 72, N-[1-Acetyl-4-(2-amino-2-oxoethyl)piperidin-4-yl]-5-cyclopropyl-6-[(4-fluorophenyl)methyl]pyridine-2-carboxamide], the EC50 (human CB2 receptors; [1]) is reported as 5 nM and the EC50 (human CB1 receptors; [2]) is reported as over 10000 nM.
